From US20130216630A1, “BIOMATERIALS FOR USE IN METHODS OF BONE REPLACEMENT THERAPY” (UNIVERSITY OF WITWATERSRAND, JOHANNESBURG, priority 2010, published 2013)
“Also recorded” adds a separate entry of the source.

Tests used:
[1] = system: rectus abdominis muscle of Papio ursinus; assay: Heterotopic implantation of macroporous 7% HA/CC constructs in rectus abdominis muscle, histological evaluation of bone induction; assay type: in vivo; settings: coral-derived 7% HA/CC macroporous constructs pre-loaded with 0.24 mg zoledronate; intramuscular (rectus abdominis) implantation in adult Papio ursinus; harvested 90 days after implantation
Procedure: Topographical modification of the implanted constructs may be of the utmost importance for the differentiation of myoblastic/myoendothelial and/or perivascular/endothelial stem cells into osteoblastic-like cells. In order to study the effect of the osteoclastic activity on cell differentiation and the induction of bone formation, samples of solid porous construct compositions, typically macroporous hydroxyapatites were pre-loaded with 0.24 mg of the osteoclastic inhibitor biphosphonate zoledronate (Zometa®). Samples with and without zoledronate were then implanted in the rectus abdominis muscle of Papio ursinus.
A biomaterial to act, in use, as a platform for bone growth induction and/or bone growth was prepared. Said solid porous composition in the form of macroporous hydroxyapatite replicas of the calcium carbonate exoskeletal microstructure of the coral genus Goniopora was prepared by hydrothermal chemical exchange with phosphate [(5) Ripamonti, U. J Bone Joint Surg Am 1991; 73:692-703; (6) Ripamonti U, Richter P W, Nilen R W N, Renton L., J Cell Mol Med 2008; 12:1029-48., (7) Shors EC, Orthop Clin North Am 1999:30:599-613; (8) Ripamonti U, van den Heever B, van Wyk J., Matrix 1993;13:491-502; (9) Ripamonti, R. M. Klar, L. F. Renton, C Ferretti., Biomaterials, 31, 6400-6410 (2010). The entirety of which are incorporated by reference herein]. […]

[2] = system: osteogenic protein-1 (OP-1) gene expression; assay: qTR-PCR analyses of harvested biomaterial constructs; assay type: in vivo; settings: harvested constructs pre-treated with 0.24 mg zoledronate; Papio ursinus rectus abdominis
Description: It is important to note that in specimens with bone formation by induction there is always expression of the OP-1 gene, i.e. there is a direct correlation between the induction of bone and the expression of the OP-1 gene.

O=P(O)(O)C(O)(Cn1ccnc1)P(=O)(O)O [zoledronate]
induction of bone formation / differentiation of bone within macroporous spaces (histology) [1]: lack of bone induction and/or bone growth; also recorded: either did not induce the differentiation of bone at all, or the induction was considerably inhibited; also recorded: In two specimens, the spontaneous induction of bone formation was altogether absent; also recorded: minor amounts of bone had formed by induction at the periphery; also recorded: very limited bone formation | osteogenic protein-1 (OP-1) gene expression [2]: dramatic reduction
